Test results taken from PubChem BioAssay (NCI).
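Following 48 hours of exposure in 96-well plates, responses at five concentrations were used to interpolate endpoints linearly. TGI: concentration producing complete growth inhibition.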 Where a SMILES comes first, the peptide text is derived from it. The star is where a group is joined. Boc = CC(C)(C)OC(=O)*

Key:
Experiment in all cases: growth of human tumour cells (NCI), 48 h
HT29 colon = system: HT29 colon
786-0 renal = system: 786-0 renal
SK-MEL-28 melanoma = system: SK-MEL-28 melanoma
NCI-H23 lung = system: NCI-H23 lung
NCI/ADR-RES ovarian = system: NCI/ADR-RES ovarian
TK-10 renal = system: TK-10 renal
IGROV1 ovarian = system: IGROV1 ovarian
CAKI-1 renal = system: CAKI-1 renal
OVCAR-5 ovarian = system: OVCAR-5 ovarian
ACHN renal = system: ACHN renal
RXF 393 renal = system: RXF 393 renal
SF-539 CNS = system: SF-539 CNS
UACC-62 melanoma = system: UACC-62 melanoma
K-562 leukemia = system: K-562 leukemia
COLO 205 colon = system: COLO 205 colon
SNB-75 CNS = system: SNB-75 CNS
HOP-92 NSCLC = system: HOP-92 NSCLC
OVCAR-8 ovarian = system: OVCAR-8 ovarian
SNB-19 CNS = system: SNB-19 CNS
OVCAR-3 ovarian = system: OVCAR-3 ovarian

| SMILES | TGI (HT29 colon) [µM] | TGI (786-0 renal) [µM] | TGI (SK-MEL-28 melanoma) [µM] | TGI (NCI-H23 lung) [µM] | TGI (NCI/ADR-RES ovarian) [µM] | TGI (TK-10 renal) [µM] | TGI (IGROV1 ovarian) [µM] | TGI (CAKI-1 renal) [µM] | TGI (OVCAR-5 ovarian) [µM] | TGI (ACHN renal) [µM] | TGI (RXF 393 renal) [µM] | TGI (SF-539 CNS) [µM] | TGI (UACC-62 melanoma) [µM] | TGI (K-562 leukemia) [µM] | TGI (COLO 205 colon) [µM] | TGI (SNB-75 CNS) [µM] | TGI (HOP-92 NSCLC) [µM] | TGI (OVCAR-8 ovarian) [µM] | TGI (SNB-19 CNS) [µM] | TGI (OVCAR-3 ovarian) [µM] |
| --- | --- | --- | --- | --- | --- | --- | --- | --- | --- | --- | --- | --- | --- | --- | --- | --- | --- | --- | --- | --- |
| CN(C)CCCOC(=O)C(c1ccccc1)C1(O)CCSCC1 (centres undefined) | > 100 | > 100 | > 100 | > 100 | > 100 | > 100 | > 100 | > 100 | > 100 | > 100 | > 100 | > 100 | > 100 | > 100 | > 100 | > 100 | > 100 | > 100 | 78.6 | > 100 |
| O=C(CCCCCCCCC(=O)NN1C(=O)/C(=C\c2ccc(O)c(O)c2)SC1c1ccc(Cl)cc1)NN1C(=O)/C(=C\c2ccc(O)c(O)c2)SC1c1ccc(Cl)cc1 (centres undefined) | > 100 | 34.4 | > 100 | 41.8 | > 100 | > 100 | > 29.5 | > 88.1 | > 100 | 71.8 | 46.2 | 43.8 | 60.2 | > 75.9 | > 100 | > 100 | 43.8 | 34 | > 53.1 | > 100 |
| CC(C)(C)C1=C(Br)C(Br)(C(C)(C)C)OP1(=O)c1ccccc1 (centres undefined) | > 100 | > 100 | > 100 | > 100 | > 100 | > 100 | > 100 | > 100 | > 100 | > 100 | > 100 | > 100 | > 100 | > 100 | > 100 | > 100 | > 100 | > 100 | > 100 | > 100 |
| COC(=O)CNC(=O)C(Cc1ccccc1)NC(=O)C(CCSC)NC(=O)C(Cc1ccc(O)cc1)NC(=O)OC(C)(C)C (centres undefined) (Boc-YMFG-OMe; configuration not given here) | > 100 | > 100 | 34.8 | > 100 | > 100 | > 100 | > 100 | > 100 | > 100 | > 100 | > 100 | > 100 | > 100 | > 100 | > 100 | > 100 | 74.1 | > 100 | > 100 | 38.9 |
| Cc1nc(-c2ccc([N+](=O)[O-])cc2)cn2c1nc1ccccc12 | > 100 | > 100 | > 100 | > 100 | > 100 | > 100 | > 100 | > 100 | > 100 |  | > 100 | > 100 | 53.8 | > 100 | > 100 | 69 | > 100 | > 100 | > 100 | > 100 |
| COCOC1/C=C/CCCC#C[C@H](C)C(=O)CC1 (some centres undefined) | 13.6 | 13.5 | 29.4 | 19.4 | 29 | 28.6 | 22.7 | 24.7 | 20.1 | 27.8 | 23.4 | 30.4 | 22.6 | 5.28 | 17.6 | 25.3 | 19.2 | 38 | 32.6 | 15.2 |
| OC1C2[C@@H](O)CCCN2C[C@@H](O)[C@H]1O (some centres undefined) | > 100 | > 100 | > 100 | > 100 | > 100 | > 100 | > 100 | > 100 | > 100 | > 100 | > 100 | > 100 | > 100 | > 100 | > 100 | > 100 | > 100 | > 100 | > 100 | > 100 |
| CSc1nc(Cl)c2c(n1)Sc1nc3cc4c(cc3n1C2O)OCCO4 (centres undefined) | 18.9 | 14.9 | 21.7 | 19.9 | 0.407 | 32.9 | 18 | 1.21 | 36 | 26.8 | 19.3 | 0.0867 | 7.87 | 17.6 | 0.142 | 36.4 | 4.41 | 3.03 | 3.99 | 2.46 |
| CN(CCC#N)c1ccc(/C=C2\SC(=S)NC2=O)cc1 | > 100 | > 100 | > 100 | > 100 | > 100 | > 100 | > 100 | > 100 | > 100 | > 100 | 96.9 | > 100 | 47.3 | > 100 | > 100 | > 100 | > 100 | > 100 | > 100 | 67.9 |
| C=C(C)C12CC(COC(=O)c3ccccc3)C34OC5(OC1C3C1OC1(CO)C(O)C1(O)C(OC(=O)c3ccccc3)C(C)C(C(C)CCCCCCC5O)C14)O2 (centres undefined) | 54.7 | > 100 | > 100 | > 100 | > 100 | 81.2 | > 100 | > 100 | > 100 | > 100 | > 100 | > 100 | > 100 | > 100 | 24.4 | > 100 | > 100 | > 100 | > 100 | > 100 |
| CC(=O)OCC(C)C1=C(O)C(=O)C2(C)C/C=C(/C)CC/C=C(\C)CCC(O)C(C)CCC12 (centres undefined) | 33.3 | 32 | 31.7 | 36.6 | 44 | 35.9 | 33 | 35.5 | 31.6 | 30.9 | 27.4 | 31 | 36.8 | 53.4 | 31.1 | 30.5 | 33.7 | 46.6 | 33.9 | 29.3 |
